Data taken from patent publication EP4745135A1 (Gluetacs Therapeutics (Shanghai) Co., Ltd., priority 2023, dated 2025).

How the values were obtained:
CK1α = biological target: T1, CK1α (Homo sapiens, UniProt P48729+Q96SW2); test: Western blot, degradation of substrate protein in hPBMCs; assay type: cell-based
T1 construct: effects of the compounds of the present disclosure on the expression of target proteins in cells; endogenous in cells; host or cells: human PBMCs (Milecell Biotechnologies)

IKZF1 = biological target: T2, IKZF1 (Homo sapiens, UniProt Q13422+Q96SW2); test: as above; assay type: cell-based
T2 construct: effects of the compounds of the present disclosure on the expression of target proteins in cells; endogenous in cells; host or cells: human PBMCs (Milecell Biotechnologies)

IKZF2 = biological target: T3, IKZF2 (Homo sapiens, UniProt Q96SW2+Q9UKS7); test: as above; assay type: cell-based
T3 construct: effects of the compounds of the present disclosure on the expression of target proteins in cells; endogenous in cells; host or cells: human PBMCs (Milecell Biotechnologies)

IKZF3 = biological target: T4, IKZF3 (Homo sapiens, UniProt Q96SW2+Q9UKT9); test: as above; assay type: cell-based
T4 construct: effects of the compounds of the present disclosure on the expression of target proteins in cells; endogenous in cells; host or cells: human PBMCs (Milecell Biotechnologies)

WEE1 = biological target: T5, WEE1 (Homo sapiens, UniProt P30291+Q96SW2); test: as above; assay type: cell-based
T5 construct: effects of the compounds of the present disclosure on the expression of target proteins in cells; endogenous in cells; host or cells: human PBMCs (Milecell Biotechnologies)

GSPT1 = test: as above; assay type: cell-based, Human
[1] = biological target: T6, human Cereblon WT GST-tagged protein (Homo sapiens, UniProt Q96SW2); test: CRBN-binding affinity, HTRF (CEREBLON BINDING kit); conditions: for inhibition at 0.5 µM: read-out: Inhibition Rate at 0.5 µM (%); for inhibition at 2 µM: read-out: Inhibition Rate at 2 µM (%); for IC50: CRBN binding, HTRF, 3 hours at room temperature, read-out: HTRF IC50
T6 construct: purchased CISBIO 64BDCRBNPEH

[2] = Western blot, 24 hours of compound treatment, compounds tested at 50 nM and 500 nM (concentration for the table not stated)
[3] = 24 hours treatment, compounds at 50 nM and 500 nM (concentration behind the class not stated)

T2 sequence (Q13422 whole entry): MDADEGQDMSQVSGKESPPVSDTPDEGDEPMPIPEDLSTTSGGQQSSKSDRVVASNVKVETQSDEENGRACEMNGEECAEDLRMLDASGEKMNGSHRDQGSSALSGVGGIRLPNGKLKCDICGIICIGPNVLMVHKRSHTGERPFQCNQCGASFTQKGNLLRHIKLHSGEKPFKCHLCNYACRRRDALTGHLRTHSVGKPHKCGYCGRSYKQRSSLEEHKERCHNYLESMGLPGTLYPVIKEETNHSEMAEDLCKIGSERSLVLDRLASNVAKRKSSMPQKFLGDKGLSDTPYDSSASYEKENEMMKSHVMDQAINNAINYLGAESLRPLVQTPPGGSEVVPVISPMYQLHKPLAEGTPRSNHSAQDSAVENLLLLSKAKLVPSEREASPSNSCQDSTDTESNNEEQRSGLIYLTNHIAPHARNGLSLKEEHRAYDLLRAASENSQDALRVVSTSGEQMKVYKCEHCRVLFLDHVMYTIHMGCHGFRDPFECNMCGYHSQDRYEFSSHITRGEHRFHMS
T2 sequence (Q96SW2 whole entry): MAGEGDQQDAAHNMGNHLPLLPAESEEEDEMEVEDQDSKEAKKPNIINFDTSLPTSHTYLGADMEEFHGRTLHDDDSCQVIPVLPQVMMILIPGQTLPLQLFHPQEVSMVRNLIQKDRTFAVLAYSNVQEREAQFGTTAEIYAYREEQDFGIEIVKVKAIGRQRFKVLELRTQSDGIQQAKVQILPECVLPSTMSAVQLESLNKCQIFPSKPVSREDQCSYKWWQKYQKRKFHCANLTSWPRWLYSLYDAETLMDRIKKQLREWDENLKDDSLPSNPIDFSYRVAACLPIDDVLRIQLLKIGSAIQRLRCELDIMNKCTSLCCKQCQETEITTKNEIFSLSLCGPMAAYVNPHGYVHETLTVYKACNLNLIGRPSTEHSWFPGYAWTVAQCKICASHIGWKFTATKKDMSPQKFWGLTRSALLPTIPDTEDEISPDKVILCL
T2 sequence (Q16531 whole entry partner): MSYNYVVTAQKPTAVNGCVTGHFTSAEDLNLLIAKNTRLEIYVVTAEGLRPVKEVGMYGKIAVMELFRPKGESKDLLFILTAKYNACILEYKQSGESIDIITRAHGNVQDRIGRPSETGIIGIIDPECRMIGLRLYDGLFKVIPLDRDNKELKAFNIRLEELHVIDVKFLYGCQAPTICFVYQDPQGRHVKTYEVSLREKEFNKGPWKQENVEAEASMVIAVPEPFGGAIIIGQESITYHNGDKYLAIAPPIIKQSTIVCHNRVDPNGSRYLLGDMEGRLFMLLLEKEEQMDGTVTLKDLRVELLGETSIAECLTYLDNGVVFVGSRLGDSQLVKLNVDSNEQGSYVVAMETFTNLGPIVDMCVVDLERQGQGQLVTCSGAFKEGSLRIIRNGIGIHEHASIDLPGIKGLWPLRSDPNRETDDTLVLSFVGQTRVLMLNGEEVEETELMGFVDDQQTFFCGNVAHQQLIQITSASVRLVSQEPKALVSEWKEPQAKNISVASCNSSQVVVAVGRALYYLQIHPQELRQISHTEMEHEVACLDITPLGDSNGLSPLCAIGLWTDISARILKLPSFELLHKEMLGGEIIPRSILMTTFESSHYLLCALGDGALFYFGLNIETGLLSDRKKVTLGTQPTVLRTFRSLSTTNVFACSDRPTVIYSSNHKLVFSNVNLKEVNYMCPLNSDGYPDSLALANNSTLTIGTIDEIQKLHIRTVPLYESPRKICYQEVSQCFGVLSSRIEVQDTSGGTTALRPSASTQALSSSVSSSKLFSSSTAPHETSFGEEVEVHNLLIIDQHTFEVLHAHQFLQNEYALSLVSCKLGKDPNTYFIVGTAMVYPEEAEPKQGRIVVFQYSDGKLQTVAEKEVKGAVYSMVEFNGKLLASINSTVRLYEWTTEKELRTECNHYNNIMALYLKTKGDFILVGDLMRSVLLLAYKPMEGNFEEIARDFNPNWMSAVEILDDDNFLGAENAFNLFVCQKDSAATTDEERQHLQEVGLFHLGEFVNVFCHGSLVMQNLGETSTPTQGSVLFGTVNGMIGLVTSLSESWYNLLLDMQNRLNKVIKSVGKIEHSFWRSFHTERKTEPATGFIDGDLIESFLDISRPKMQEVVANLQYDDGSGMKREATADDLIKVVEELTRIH
T5 sequence (P30291 whole entry): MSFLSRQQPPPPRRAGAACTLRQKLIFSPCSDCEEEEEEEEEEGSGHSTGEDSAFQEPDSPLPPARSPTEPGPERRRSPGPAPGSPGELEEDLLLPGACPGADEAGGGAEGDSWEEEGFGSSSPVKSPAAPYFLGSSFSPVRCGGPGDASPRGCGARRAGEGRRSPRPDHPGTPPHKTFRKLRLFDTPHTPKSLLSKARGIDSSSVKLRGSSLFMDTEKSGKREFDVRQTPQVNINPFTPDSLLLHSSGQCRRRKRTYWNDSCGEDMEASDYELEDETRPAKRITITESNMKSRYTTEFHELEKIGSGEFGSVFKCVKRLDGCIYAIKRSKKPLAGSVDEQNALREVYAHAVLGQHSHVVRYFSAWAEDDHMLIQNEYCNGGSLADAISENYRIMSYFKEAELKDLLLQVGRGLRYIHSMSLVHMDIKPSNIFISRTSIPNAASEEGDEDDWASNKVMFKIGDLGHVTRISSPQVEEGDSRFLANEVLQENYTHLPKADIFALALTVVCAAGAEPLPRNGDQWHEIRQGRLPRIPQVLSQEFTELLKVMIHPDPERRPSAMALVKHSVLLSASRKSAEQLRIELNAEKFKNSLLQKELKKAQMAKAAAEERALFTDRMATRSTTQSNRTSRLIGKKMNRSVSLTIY
T5 sequence (Q96SW2 whole entry): as the sequence (Q96SW2 whole entry) above
T5 sequence (Q16531 whole entry partner): as the sequence (Q16531 whole entry partner) above
T3 sequence (Q9UKS7 whole entry): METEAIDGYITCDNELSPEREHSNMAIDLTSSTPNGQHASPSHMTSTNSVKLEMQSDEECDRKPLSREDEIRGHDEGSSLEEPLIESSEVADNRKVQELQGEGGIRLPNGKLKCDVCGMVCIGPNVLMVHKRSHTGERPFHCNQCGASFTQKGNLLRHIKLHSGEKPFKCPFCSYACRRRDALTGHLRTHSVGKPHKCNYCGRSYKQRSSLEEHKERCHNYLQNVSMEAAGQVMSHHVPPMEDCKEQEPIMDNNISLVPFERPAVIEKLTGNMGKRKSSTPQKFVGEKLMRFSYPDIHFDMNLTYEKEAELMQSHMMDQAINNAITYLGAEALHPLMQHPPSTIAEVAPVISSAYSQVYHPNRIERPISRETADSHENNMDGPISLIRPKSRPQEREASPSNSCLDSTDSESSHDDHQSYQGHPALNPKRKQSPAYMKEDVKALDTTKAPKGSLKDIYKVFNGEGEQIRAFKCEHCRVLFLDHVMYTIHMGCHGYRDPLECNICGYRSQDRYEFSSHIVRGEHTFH
T3 sequence (Q96SW2 whole entry): as the sequence (Q96SW2 whole entry) above
T3 sequence (Q16531 whole entry partner): as the sequence (Q16531 whole entry partner) above
T4 sequence (Q9UKT9 whole entry): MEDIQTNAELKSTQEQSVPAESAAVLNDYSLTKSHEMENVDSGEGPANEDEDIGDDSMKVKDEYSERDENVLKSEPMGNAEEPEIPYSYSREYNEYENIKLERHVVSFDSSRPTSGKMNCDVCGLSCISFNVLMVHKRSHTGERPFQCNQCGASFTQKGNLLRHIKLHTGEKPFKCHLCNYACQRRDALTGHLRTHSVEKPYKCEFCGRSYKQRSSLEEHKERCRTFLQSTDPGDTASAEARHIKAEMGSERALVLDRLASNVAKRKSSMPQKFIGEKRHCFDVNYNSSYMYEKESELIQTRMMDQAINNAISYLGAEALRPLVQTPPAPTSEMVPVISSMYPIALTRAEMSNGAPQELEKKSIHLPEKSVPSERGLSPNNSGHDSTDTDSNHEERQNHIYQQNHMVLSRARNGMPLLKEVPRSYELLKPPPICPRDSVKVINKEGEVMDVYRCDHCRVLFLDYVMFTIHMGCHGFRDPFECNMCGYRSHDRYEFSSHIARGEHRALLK
T4 sequence (Q96SW2 whole entry): as the sequence (Q96SW2 whole entry) above
T4 sequence (Q16531 whole entry partner): as the sequence (Q16531 whole entry partner) above
T1 sequence (P48729 whole entry): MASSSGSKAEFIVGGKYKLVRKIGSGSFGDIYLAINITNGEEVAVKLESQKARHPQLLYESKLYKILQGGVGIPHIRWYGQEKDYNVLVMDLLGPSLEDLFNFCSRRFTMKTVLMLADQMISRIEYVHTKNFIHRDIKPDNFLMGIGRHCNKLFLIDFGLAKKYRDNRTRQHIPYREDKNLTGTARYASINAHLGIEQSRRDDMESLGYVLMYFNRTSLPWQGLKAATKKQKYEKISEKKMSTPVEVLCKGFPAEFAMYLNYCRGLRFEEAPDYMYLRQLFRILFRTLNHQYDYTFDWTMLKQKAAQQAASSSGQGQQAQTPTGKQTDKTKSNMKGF
T1 sequence (Q96SW2 whole entry): as the sequence (Q96SW2 whole entry) above
T1 sequence (Q16531 whole entry partner): as the sequence (Q16531 whole entry partner) above
T6 sequence (Q96SW2 whole entry): as the sequence (Q96SW2 whole entry) above

Compound	CK1α substrate protein remaining % (CK1α; [2])	IKZF 1 substrate protein remaining % (IKZF1; [2])	IKZF2 substrate protein remaining % (IKZF2; [2])	IKZF3 substrate protein remaining % (IKZF3; [2])	Wee1 substrate protein remaining % (WEE1; [2])	GSPT1 substrate protein remaining % (GSPT1; [2])	inhibition at 0.5 µM [1]	inhibition at 2 µM [1]	CK1α substrate protein remaining % (CK1α; [3])	IKZF 1 substrate protein remaining % (IKZF1; [3])	IKZF2 substrate protein remaining % (IKZF2; [3])	IKZF3 substrate protein remaining % (IKZF3; [3])	Wee1 substrate protein remaining % (WEE1; [3])	GSPT1 substrate protein remaining % (GSPT1; [3])	IC50 [1]
O=C1CCC(N2Cc3c(CN4CCN(c5nccc(Cl)c5Br)CC4)cccc3C2=S)C(=O)N1 (stereo not shown) [GT-08804, 3-(4-((4-(3-bromo-4-chloropyridin-2-yl)piperazin-1-yl)methyl)-1-thioxoisoindolin-2-yl)piperidine-2,6-dione]	B (80%< substrate protein remaining %≤ 100%)	B (80%< substrate protein remaining %≤ 100%)	B (80%< substrate protein remaining %≤ 100%)	B (80%< substrate protein remaining %≤ 100%)	A (0% ≤ substrate protein remaining % ≤ 80%)	B (80%< substrate protein remaining %≤ 100%)	40 to 53%	60 to 80%	–	–	–	–	–	–	–
O=C1CCC(N2Cc3c(CN4CCC(n5cnc6cc(F)ccc65)CC4)cccc3C2=S)C(=O)N1 (stereo not shown) [GT-08842, 3-(4-((4-(5-fluoro-1H-benzo[d]imidazol-1-yl)piperidin-1-yl)methyl)-1-thioxoisoindolin-2-yl)piperidine-2,6-dione]	B (80%< substrate protein remaining %≤ 100%)	B (80%< substrate protein remaining %≤ 100%)	B (80%< substrate protein remaining %≤ 100%)	B (80%< substrate protein remaining %≤ 100%)	A (0% ≤ substrate protein remaining % ≤ 80%)	B (80%< substrate protein remaining %≤ 100%)	40 to 53%	80 to 100%	–	–	–	–	–	–	–
O=C1CCC(N2Cc3ccc(CO)cc3C2=S)C(=O)N1 (stereo not shown) [GT-05566, 3-(6-(hydroxymethyl)-1-thioxoisoindolin-2-yl)piperidine-2,6-dione]	–	–	–	–	–	–	–	–	B (80%< substrate protein remaining %≤ 100%)	A (0% ≤ substrate protein remaining % ≤ 80%)	A (0% ≤ substrate protein remaining % ≤ 80%)	A (0% ≤ substrate protein remaining % ≤ 80%)	A (0% ≤ substrate protein remaining % ≤ 80%)	B (80%< substrate protein remaining %≤ 100%)	100 to 500 nM
O=C1CCC(N2Cc3c(CN4CCN(c5ccsc5)CC4)cccc3C2=S)C(=O)N1 (stereo not shown) [GT-08313, 3-(4-((4-(thiophen-3-yl)piperazin-1-yl)methyl)-1-thioxoisoindolin-2-yl)piperidine-2,6-dione]	–	–	–	–	–	–	40 to 53%	60 to 80%	B (80%< substrate protein remaining %≤ 100%)	B (80%< substrate protein remaining %≤ 100%)	A (0% ≤ substrate protein remaining % ≤ 80%)	B (80%< substrate protein remaining %≤ 100%)	A (0% ≤ substrate protein remaining % ≤ 80%)	B (80%< substrate protein remaining %≤ 100%)	–
O=C1CCC(N2Cc3cc(CN4CCC(c5ccc(Br)cc5)CC4)ccc3C2=S)C(=O)N1 (stereo not shown) [GT-08618, 3-(5-((4-(4-bromophenyl)piperidin-1-yl)methyl)-1-thioxoisoindolin-2-yl)piperidine-2,6-dione]	B (80%< substrate protein remaining %≤ 100%)	B (80%< substrate protein remaining %≤ 100%)	B (80%< substrate protein remaining %≤ 100%)	B (80%< substrate protein remaining %≤ 100%)	B (80%< substrate protein remaining %≤ 100%)	A (0% ≤ substrate protein remaining % ≤ 80%)	30 to 40%	60 to 80%	–	–	–	–	–	–	–
O=C1CCC(N2Cc3c(CN4CCN(c5ccc(Br)cc5)CC4)cccc3C2=S)C(=O)N1 (stereo not shown) [GT-08496, 3-(4-((4-(4-bromophenyl)piperazin-1-yl)methyl)-1-thioxoisoindolin-2-yl)piperidine-2,6-dione]	B (80%< substrate protein remaining %≤ 100%)	A (0% ≤ substrate protein remaining % ≤ 80%)	A (0% ≤ substrate protein remaining % ≤ 80%)	B (80%< substrate protein remaining %≤ 100%)	A (0% ≤ substrate protein remaining % ≤ 80%)	A (0% ≤ substrate protein remaining % ≤ 80%)	40 to 53%	80 to 100%	–	–	–	–	–	–	–
O=C1CCC(N2Cc3c(CN4CCN(c5ccccc5Cl)CC4)cccc3C2=S)C(=O)N1 (stereo not shown) [GT-08265, 3-(4-((4-(2-chlorophenyl)piperazin-1-yl)methyl)-1-thioxoisoindolin-2-yl)piperidine-2,6-dione]	B (80%< substrate protein remaining %≤ 100%)	B (80%< substrate protein remaining %≤ 100%)	B (80%< substrate protein remaining %≤ 100%)	B (80%< substrate protein remaining %≤ 100%)	A (0% ≤ substrate protein remaining % ≤ 80%)	A (0% ≤ substrate protein remaining % ≤ 80%)	40 to 53%	53 to 60%	–	–	–	–	–	–	–
O=C1CCC(N2Cc3c(CN4CC=C(c5c[nH]c6ncccc56)CC4)cccc3C2=S)C(=O)N1 (stereo not shown) [GT-08494, 3-(4-((4-(1H-pyrrolo[2,3-b]pyridin-3-yl)-3,6-dihydropyridin-1(2H)-yl)methyl)-1-thioxoisoindolin-2-yl)piperidine-2,6-dione]	B (80%< substrate protein remaining %≤ 100%)	A (0% ≤ substrate protein remaining % ≤ 80%)	A (0% ≤ substrate protein remaining % ≤ 80%)	B (80%< substrate protein remaining %≤ 100%)	A (0% ≤ substrate protein remaining % ≤ 80%)	B (80%< substrate protein remaining %≤ 100%)	60 to 80%	80 to 100%	–	–	–	–	–	–	–
O=C1CCC(N2Cc3c(CN4CCC(c5noc6cc(F)ccc56)CC4)cccc3C2=S)C(=O)N1 (stereo not shown) [GT-04997, 3-(4-((4-(6-fluorobenzo[d]isoxazol-3-yl)piperidin-1-yl)methyl)-1-thioxoisoindolin-2-yl)piperidine-2,6-dione]	–	–	–	–	–	–	–	–	B (80%< substrate protein remaining %≤ 100%)	B (80%< substrate protein remaining %≤ 100%)	B (80%< substrate protein remaining %≤ 100%)	B (80%< substrate protein remaining %≤ 100%)	A (0% ≤ substrate protein remaining % ≤ 80%)	B (80%< substrate protein remaining %≤ 100%)	100 to 500 nM
O=C1CCC(N2Cc3c(CN4CCN(c5ccnc(Cl)c5Cl)CC4)cccc3C2=S)C(=O)N1 (stereo not shown) [GT-08735, 3-(4-((4-(2,3-dichloropyridin-4-yl)piperazin-1-yl)methyl)-1-thioxoisoindolin-2-yl)piperidine-2,6-dione]	B (80%< substrate protein remaining %≤ 100%)	B (80%< substrate protein remaining %≤ 100%)	B (80%< substrate protein remaining %≤ 100%)	B (80%< substrate protein remaining %≤ 100%)	A (0% ≤ substrate protein remaining % ≤ 80%)	B (80%< substrate protein remaining %≤ 100%)	60 to 80%	80 to 100%	–	–	–	–	–	–	–
O=C1CCC(N2Cc3c(CN4CCC(c5cccc(F)c5F)CC4)cccc3C2=S)C(=O)N1 (stereo not shown) [GT-08322, 3-(4-((4-(2,3-difluorophenyl)piperidin-1-yl)methyl)-1-thioxoisoindolin-2-yl)piperidine-2,6-dione]	–	–	–	–	–	–	30 to 40%	53 to 60%	A (0% ≤ substrate protein remaining % ≤ 80%)	B (80%< substrate protein remaining %≤ 100%)	A (0% ≤ substrate protein remaining % ≤ 80%)	B (80%< substrate protein remaining %≤ 100%)	A (0% ≤ substrate protein remaining % ≤ 80%)	A (0% ≤ substrate protein remaining % ≤ 80%)	–
O=C1CCC(N2Cc3c(CN4CCN(c5cnnc(Cl)c5Cl)CC4)cccc3C2=S)C(=O)N1 (stereo not shown) [GT-08815, 3-(4-((4-(5,6-dichloropyridazin-4-yl)piperazin-1-yl)methyl)-1-thioxoisoindolin-2-yl)piperidine-2,6-dione]	B (80%< substrate protein remaining %≤ 100%)	B (80%< substrate protein remaining %≤ 100%)	B (80%< substrate protein remaining %≤ 100%)	B (80%< substrate protein remaining %≤ 100%)	A (0% ≤ substrate protein remaining % ≤ 80%)	B (80%< substrate protein remaining %≤ 100%)	60 to 80%	80 to 100%	–	–	–	–	–	–	–
